Tests used:
[1] = tested on: redroot pigweed; experiment: Test Example 5: herbicidal effect by foliage application, plastic box (Table 20, symbol N); format: in vivo, redroot pigweed (Amaranthus retroflexus); conditions: for N (redroot pigweed) herbicidal effect grade: foliage application, 320 g/ha, evaluated 3 weeks after application
Method in brief: (§1)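 Post-emergence foliar test in sterilized diluvial soil. Compound applied as water-diluted emulsion at a predetermined rate to 14-day-old plants; evaluation at three weeks.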

[2] = tested on: oval-leafed pondweed; experiment: Test Example 1: herbicidal activity, application before weed generation under submerged conditions (Table 16, symbol C); format: in vivo, oval-leafed pondweed (Monochoria vaginalis); conditions: amount of applied herbicide 320 g/ha
Method in brief: (§2)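 Emulsion formulation, water-diluted to set dose, was put onto the flooded surface (4 cm depth, alluvial soil) the same day weeds were sown and 2.5-leaf rice transplanted. After 3 weeks at 25-30 °C under glass, each species was rated 0 (≤5% kill) to 5 (≥90% kill).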

[3] = tested on: Chinese sprangletop; experiment: Test Example 3: herbicidal effect by foliage application, Wagner pot (Table 18, symbol D); format: in vivo, chinese sprangletop (Leptochloa chinensis); conditions: for Herbicidal effect on D (Chinese sprangletop), foliage application: amount of applied herbicide 320 g/ha
Method in brief: (§3)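 Plants were sown in alluvial soil held under 0.1–0.5 cm standing water and grown 14 days in a greenhouse at 25–30 °C. An emulsifiable formulation, water-diluted to the set dose, was then sprayed onto the foliage, and effects were scored three weeks later using previously defined criteria.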

[4] = tested on: lambsquarters; experiment: Test Example 5: herbicidal effect by foliage application, plastic box (Table 20, symbol O); format: in vivo, lambsquarters (Chenopodium album); conditions: for O (lambsquarters) herbicidal effect grade: foliage application, 320 g/ha, evaluated 3 weeks after application
Method in brief: as §1

[5] = tested on: persian speedwell; experiment: Test Example 5: herbicidal effect by foliage application, plastic box (Table 20, symbol R); format: in vivo, Persian speedwell (Veronica persica); conditions: for R (persian speedwell) herbicidal effect grade: foliage application, 320 g/ha, evaluated 3 weeks after application
Method in brief: as §1

[6] = tested on: Japanese bulrush; experiment: Test Example 1: herbicidal activity, application before weed generation under submerged conditions (Table 16, symbol B); format: in vivo, Japanese bulrush (Schoenoplectus juncoides); conditions: amount of applied herbicide 320 g/ha
Method in brief: as §2

[7] = tested on: windgrass; experiment: Test Example 4: herbicidal effect by soil treatment (Table 19, symbol L); format: in vivo, windgrass (Apera spica-venti); conditions: amount of applied herbicide 320 g/ha
Method in brief: (§4)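 Scoring uses the grading scale of an earlier test, three weeks post-application. Treatment consists of spraying a diluted emulsion formulation across the surface of sterilized diluvial soil in which seeds are buried near 1.5 cm deep; boxes are kept in a greenhouse between 25° C. and 30° C.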

[8] = tested on: wild oat; experiment: Test Example 5: herbicidal effect by foliage application, plastic box (Table 20, symbol I); format: in vivo, wild oat (Avena fatua); conditions: for I (wild oat) herbicidal effect grade: foliage application, 320 g/ha, evaluated 3 weeks after application
Method in brief: as §1

[9] = tested on: Italian ryegrass; experiment: Test Example 4: herbicidal effect by soil treatment (Table 19, symbol K); format: in vivo, Italian ryegrass (Lolium multiflorum); conditions: amount of applied herbicide 320 g/ha
Method in brief: as §4

[10] = tested on: green foxtail; experiment: Test Example 4: herbicidal effect by soil treatment (Table 19, symbol G); format: in vivo, green foxtail (Setaria viridis); conditions: amount of applied herbicide 320 g/ha
Method in brief: as §4

[11] = tested on: wild oat; experiment: Test Example 4: herbicidal effect by soil treatment (Table 19, symbol I); format: in vivo, wild oat (Avena fatua); conditions: amount of applied herbicide 320 g/ha
Method in brief: as §4

[12] = tested on: rice flat sedge; experiment: Test Example 3: herbicidal effect by foliage application, Wagner pot (Table 18, symbol E); format: in vivo, rice flat sedge (Cyperus iria); conditions: for Herbicidal effect on E (rice flat sedge), foliage application: amount of applied herbicide 320 g/ha
Method in brief: as §3

[13] = tested on: windgrass; experiment: Test Example 5: herbicidal effect by foliage application, plastic box (Table 20, symbol L); format: in vivo, windgrass (Apera spica-venti); conditions: for L (windgrass) herbicidal effect grade: foliage application, 320 g/ha, evaluated 3 weeks after application
Method in brief: as §1

[14] = tested on: redroot pigweed; experiment: Test Example 4: herbicidal effect by soil treatment (Table 19, symbol N); format: in vivo, redroot pigweed (Amaranthus retroflexus); conditions: amount of applied herbicide 320 g/ha
Method in brief: as §4

[15] = tested on: Japanese bulrush; experiment: Test Example 2: herbicidal activity, application during weed generation under submerged conditions (Table 17, symbol B); format: in vivo, Japanese bulrush (Schoenoplectus juncoides); conditions: for herbicidal effect rating, B: Japanese bulrush: AAH 320 g/ha, application during weed generation, submerged conditions; for herbicidal effect grade, B: Japanese bulrush: application during weed generation under submerged conditions, amount of applied herbicide 320 g/ha
Method in brief: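 3-wk visual-criteria score after one water-surface dose. Emulsion formulation, water-diluted to set rate; applied at 1–2 leaf stage; alluvial soil, 4 cm standing water; seeds co-sown; greenhouse 25–30° C.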

[16] = tested on: chickweed; experiment: Test Example 4: herbicidal effect by soil treatment (Table 19, symbol P); format: in vivo, common chickweed (Stellaria media); conditions: amount of applied herbicide 320 g/ha
Method in brief: as §4

[17] = tested on: southern crabgrass; experiment: Test Example 5: herbicidal effect by foliage application, plastic box (Table 20, symbol F); format: in vivo, southern crabgrass (Digitaria ciliaris); conditions: for F (southern crabgrass) herbicidal effect grade: foliage application, 320 g/ha, evaluated 3 weeks after application
Method in brief: as §1

[18] = amount of applied herbicide 320 g/ha, foliage application after 14-day growth, evaluated three weeks after application

Compound: COc1ccc(-c2sc3cc(Cl)c(Cl)cc3c2-c2c(O)c(C)nn(C)c2=O)cc1 [5-043]
- Herbicidal effect by foliage application, N: redroot pigweed [1, 18]: 3 (Herbicidal rate of 40% or more and less than 70%)
- Herbicidal effect, C: oval-leafed pondweed [2]: 0 (Herbicidal rate of 5% or less (almost no effect))
- herbicidal effect on Chinese sprangletop (D) ([3]; 320 g/ha): 3 (Herbicidal rate of 40% or more and less than 70%)
- Herbicidal effect by foliage application, O: lambsquarters [4, 18]: 3 (Herbicidal rate of 40% or more and less than 70%)
- Herbicidal effect by foliage application, R: persian speedwell [5, 18]: 5 (Herbicidal rate of 90% or more (almost completely withered))
- Herbicidal effect, B: Japanese bulrush [6]: 2 (Herbicidal rate of 20% or more and less than 40%)
- L: windgrass, herbicidal effect grade [7]: 0 (Herbicidal rate of 5% or less (almost no effect))
- Herbicidal effect by foliage application, I: wild oat [8, 18]: 0 (Herbicidal rate of 5% or less (almost no effect))
- K: Italian ryegrass, herbicidal effect grade [9]: 0 (Herbicidal rate of 5% or less (almost no effect))
- G: green foxtail, herbicidal effect grade [10]: 0 (Herbicidal rate of 5% or less (almost no effect))
- I: wild oat, herbicidal effect grade [11]: 0 (Herbicidal rate of 5% or less (almost no effect))
- herbicidal effect on rice flat sedge (E) ([12]; 320 g/ha): 4 (Herbicidal rate of 70% or more and less than 90%)
- Herbicidal effect by foliage application, L: windgrass [13, 18]: 0 (Herbicidal rate of 5% or less (almost no effect))
- N: redroot pigweed, herbicidal effect grade [14]: 0 (Herbicidal rate of 5% or less (almost no effect))
- herbicidal effect rating, B: Japanese bulrush [15]: 0 (Herbicidal rate of 5% or less (almost no effect))
- P: chickweed, herbicidal effect grade [16]: 3 (Herbicidal rate of 40% or more and less than 70%)
- Herbicidal effect by foliage application, F: southern crabgrass [17, 18]: 0 (Herbicidal rate of 5% or less (almost no effect))

Compound: CCCOc1ccc(-c2oc3ccc(C)cc3c2-c2c(O)c(C)nn(C)c2=O)cc1 [9-049]
- N (redroot pigweed) herbicidal effect grade [1]: 5 (Herbicidal rate of 90% or more (almost completely withered))
- Herbicidal effect, C: oval-leafed pondweed [2]: 5 (Herbicidal rate of 90% or more (almost completely withered))
- Herbicidal effect on D (Chinese sprangletop), foliage application [3]: 2 (Herbicidal rate of 20% or more and less than 40%)
- O (lambsquarters) herbicidal effect grade [4]: 5 (Herbicidal rate of 90% or more (almost completely withered))
- R (persian speedwell) herbicidal effect grade [5]: 5 (Herbicidal rate of 90% or more (almost completely withered))
- Herbicidal effect, B: Japanese bulrush [6]: 5 (Herbicidal rate of 90% or more (almost completely withered))
- L: windgrass, herbicidal effect grade [7]: 0 (Herbicidal rate of 5% or less (almost no effect))
- I (wild oat) herbicidal effect grade [8]: 0 (Herbicidal rate of 5% or less (almost no effect))
- K: Italian ryegrass, herbicidal effect grade [9]: 5 (Herbicidal rate of 90% or more (almost completely withered))
- G: green foxtail, herbicidal effect grade [10]: 4 (Herbicidal rate of 70% or more and less than 90%)
- I: wild oat, herbicidal effect grade [11]: 0 (Herbicidal rate of 5% or less (almost no effect))
- Herbicidal effect on E (rice flat sedge), foliage application [12]: 3 (Herbicidal rate of 40% or more and less than 70%)
- L (windgrass) herbicidal effect grade [13]: 0 (Herbicidal rate of 5% or less (almost no effect))
- N: redroot pigweed, herbicidal effect grade [14]: 5 (Herbicidal rate of 90% or more (almost completely withered))
- herbicidal effect rating, B: Japanese bulrush [15]: 4 (Herbicidal rate of 70% or more and less than 90%)
- P: chickweed, herbicidal effect grade [16]: 4 (Herbicidal rate of 70% or more and less than 90%)
- F (southern crabgrass) herbicidal effect grade [17]: 5 (Herbicidal rate of 90% or more (almost completely withered))

Compound: CCCC(=O)Oc1c(C)nn(C)c(=O)c1-c1c(-c2ccc(SCC)cc2)oc2ccc(C)cc12 [9-058]
- N (redroot pigweed) herbicidal effect grade [1]: 5 (Herbicidal rate of 90% or more (almost completely withered))
- Herbicidal effect, C: oval-leafed pondweed [2]: 5 (Herbicidal rate of 90% or more (almost completely withered))
- Herbicidal effect on D (Chinese sprangletop), foliage application [3]: 3 (Herbicidal rate of 40% or more and less than 70%)
- O (lambsquarters) herbicidal effect grade [4]: 5 (Herbicidal rate of 90% or more (almost completely withered))
- R (persian speedwell) herbicidal effect grade [5]: 5 (Herbicidal rate of 90% or more (almost completely withered))
- Herbicidal effect, B: Japanese bulrush [6]: 5 (Herbicidal rate of 90% or more (almost completely withered))
- L: windgrass, herbicidal effect grade [7]: 0 (Herbicidal rate of 5% or less (almost no effect))
- I (wild oat) herbicidal effect grade [8]: 2 (Herbicidal rate of 20% or more and less than 40%)
- K: Italian ryegrass, herbicidal effect grade [9]: 5 (Herbicidal rate of 90% or more (almost completely withered))
- G: green foxtail, herbicidal effect grade [10]: 5 (Herbicidal rate of 90% or more (almost completely withered))
- I: wild oat, herbicidal effect grade [11]: 0 (Herbicidal rate of 5% or less (almost no effect))
- Herbicidal effect on E (rice flat sedge), foliage application [12]: 5 (Herbicidal rate of 90% or more (almost completely withered))
- L (windgrass) herbicidal effect grade [13]: 0 (Herbicidal rate of 5% or less (almost no effect))
- N: redroot pigweed, herbicidal effect grade [14]: 5 (Herbicidal rate of 90% or more (almost completely withered))
- herbicidal effect grade, B: Japanese bulrush [15]: 3 (Herbicidal rate of 40% or more and less than 70%)
- P: chickweed, herbicidal effect grade [16]: 3 (Herbicidal rate of 40% or more and less than 70%)
- F (southern crabgrass) herbicidal effect grade [17]: 4 (Herbicidal rate of 70% or more and less than 90%)

Compound: Cc1ccc2oc(-c3ccc(SC(C)C)cc3)c(-c3c(O)c(C)nn(C)c3=O)c2c1 [9-059]
- N (redroot pigweed) herbicidal effect grade [1]: 5 (Herbicidal rate of 90% or more (almost completely withered))
- Herbicidal effect, C: oval-leafed pondweed [2]: 3 (Herbicidal rate of 40% or more and less than 70%)
- Herbicidal effect on D (Chinese sprangletop), foliage application [3]: 3 (Herbicidal rate of 40% or more and less than 70%)
- O (lambsquarters) herbicidal effect grade [4]: 5 (Herbicidal rate of 90% or more (almost completely withered))
- R (persian speedwell) herbicidal effect grade [5]: 5 (Herbicidal rate of 90% or more (almost completely withered))
- Herbicidal effect, B: Japanese bulrush [6]: 3 (Herbicidal rate of 40% or more and less than 70%)
- L: windgrass, herbicidal effect grade [7]: 0 (Herbicidal rate of 5% or less (almost no effect))
- I (wild oat) herbicidal effect grade [8]: 3 (Herbicidal rate of 40% or more and less than 70%)
- K: Italian ryegrass, herbicidal effect grade [9]: 4 (Herbicidal rate of 70% or more and less than 90%)
- G: green foxtail, herbicidal effect grade [10]: 3 (Herbicidal rate of 40% or more and less than 70%)
- I: wild oat, herbicidal effect grade [11]: 0 (Herbicidal rate of 5% or less (almost no effect))
- Herbicidal effect on E (rice flat sedge), foliage application [12]: 5 (Herbicidal rate of 90% or more (almost completely withered))
- L (windgrass) herbicidal effect grade [13]: 1 (Herbicidal rate of 5% or more and less than 20%)
- N: redroot pigweed, herbicidal effect grade [14]: 5 (Herbicidal rate of 90% or more (almost completely withered))
- herbicidal effect grade, B: Japanese bulrush [15]: 3 (Herbicidal rate of 40% or more and less than 70%)
- P: chickweed, herbicidal effect grade [16]: 5 (Herbicidal rate of 90% or more (almost completely withered))
- F (southern crabgrass) herbicidal effect grade [17]: 2 (Herbicidal rate of 20% or more and less than 40%)

— patent US20230085307A1, “PYRIDAZINONE COMPOUND AND HERBICIDE” (NISSAN CHEMICAL CORPORATION, priority 2019, published 2023)
